Laboratory results from patent publication US20210198201A1, “Orally Active Melanocortin Receptor-4 Compounds” (Palatin Technologies, Inc., priority 2018, published 2021).
Marks after values point to notes of the source that are not given here.

How the values were obtained:
MC1r = molecular target: T1, MC1r (Homo sapiens, UniProt Q01726); assay: Competitive inhibition binding assay, MC1r; details: binding studies
T1 construct: expressed in transfected cells; host or cells: HEK-293 (membrane homogenates)
Procedure: (§1) A competitive inhibition binding assay is performed using membrane homogenates prepared from HEK-293 cells that express recombinant hMC1ra, hMC4r, hMC3r, or hMC5r, and from B16-F10 mouse melanoma cells (containing endogenous MC1r). In the examples that follow, all values are for human recombinant receptors unless otherwise noted. Assays are performed in 96 well GF/B Millipore multiscreen filtration plates (MAFB NOB10) pre-coated with 0.5% bovine serum albumin (Fraction V). […] After incubation for 60 to 90 minutes at 37° C., the assay mixture is filtered and the membranes washed three times with ice-cold buffer. Filters are dried and counted in a gamma counter for bound radioactivity.
(§2) Maximal specific binding (100%) is defined as the difference in radioactivity (cpm) bound to cell membranes in the absence and presence of 1 μM NDP-α-MSH. […] Each assay is conducted in duplicate or triplicate and the actual mean values are described, with results less than 0% reported as 0%. Ki values for test compounds are determined using Graph-Pad Prism® curve-fitting software.

MC4r [1] = molecular target: T2, MC4r (Homo sapiens, UniProt P32245); assay: cAMP functional study in human MC4r expression system approximating maximal physiologic receptor densities; type: cell-based; design: host or cells: TREx-293; details: low receptor density human MC4r system; for Emax: read-out: relative efficacy, compared to NDP-α-MSH
Procedure: Assay for Agonist Activity. Accumulation of intracellular cAMP was examined as a measure of the ability of the peptides of the present invention to elicit a functional response in HEK-293 cells that express MC4-R. Confluent HEK-293 cells that express recombinant hMC4-R were detached from culture plates by incubation in enzyme-free cell dissociation buffer. Dispersed cells were suspended in Hanks' Balanced Salt Solution containing 10 mM HEPES (pH 7.5), 1 mM MgCl2, 1 mM glutamine, 0.5% albumin and 0.3 mM 3-isobutyl-1-methyl-xanthine (IBMX), a phosphodiesterase inhibitor. The cells were plated in 96-well plates at a density of 0.5×10^5 cells per well and pre-incubated for 10 minutes. Cells were exposed for 15 minutes at 37° C. to peptides of the present invention dissolved in DMSO (final DMSO concentration of 1%) at a concentration range of 0.05-5000 nM in a total assay volume of 200 μL. NDP-α-MSH was used as the reference agonist. cAMP levels were determined by an HTRF® cAMP cell-based assay system from Cisbio Bioassays utilizing cryptate-labeled anti-cAMP and d2-labeled cAMP, with plates read on a Perkin-Elmer Victor plate reader at […]. Data analysis was performed by nonlinear regression analysis with Graph-Pad Prism® software. The maximum efficacies of the test peptides of the present invention were compared to that achieved by the reference melanocortin agonist NDP-αMSH.
Low Receptor Density Systems. In functional studies preferably a human MC4r expression system approximating maximal human physiologic receptor densities is employed. In one aspect, a tetracycline-regulated mammalian expression system that uses regulatory elements from the E. coli Tn10-encoded tetracycline (Tet) resistance operon was employed (T-REx™ System, Invitrogen). By use of the T-REx™ System, expression of the gene of interest, the human MC4-R gene, was repressed in the absence of tetracycline or doxycycline and induced in the presence of tetracycline or doxycycline, with receptor density being dependent on the concentration of tetracycline or doxycycline. See generally Yao F. et al: Tetracycline repressor, tetR, rather than the tetR-mammalian cell transcription factor fusion derivatives, regulates inducible gene expression in mammalian cells. Hum. Gene Ther. 9:1939-1950 (1998), incorporated here by reference. Regulation was based on the binding of tetracycline or doxycycline, a derivative of tetracycline, to the Tet repressor and derepression of the promoter controlling expression of the human MC4-R gene. In general tetracycline or related regulators, such as tetracycline-derivatives, may be used to induce the gene expression. An inducible expression plasmid for expression of human MC4-R gene under the control of the strong human cytomegalovirus immediate-early (CMV) promoter and two tetracycline operator 2 (TetO2) sites was employed, together with a regulatory plasmid, pcDNA6/TR, which encodes the Tet repressor (TetR) under the control of the human SV40 promoter. Thus, expression of the human MC4-R gene from the inducible expression vector was controlled by the strong CMV promoter into which 2 copies of the tet operator 2 (TetO2) sequence had been inserted in tandem. The TetO2 sequences consisted of 2 copies of 19-nucleotide sequence separated by a 2 base pair spacer. Each 19 nucleotide TetO2 sequence served as the binding site for 2 molecules of the Tet repressor. The expression vector pcDNA4/TO/MC4R was introduced into TREx-293 (Invitrogen, R710-07), a cell line stably expressing the tetracycline repressor pcDNA6/TR using lipofectamin 2000 reagent (Invitrogen, 11668-019). Alternatively, both the expression vector and repressor are introduced into host cells by standard transformation or transfection methods.

MC4r [2] = molecular target: T2, MC4r; assay: Competitive inhibition binding assay, MC4r; design: expressed in transfected cells; host or cells: HEK-293 (membrane homogenates); details: binding studies
Procedure: as §1, §2
Competitive Binding Assay Using Eu-NDP-α-MSH. Alternatively, a competitive inhibition binding assay is performed employing Eu-NDP-α-MSH (PerkinElmer Life Sciences catalog No. AD0225) with determination by time-resolved fluorometry (TRF) of the lanthanide chelate. […] After incubation for 90 minutes at 37° C., the reaction was stopped by filtration over Acro Well 96-well filter plates (Pall Life Sciences). The filter plates were washed 4 times with 200 μL of ice-cold phosphate-buffered saline. DELFIA Enhancement solution (PerkinElmer Life Sciences) was added to each well. The plates were incubated on a shaker for 15 minutes and read at 340 nm excitation and 615 nm emission wavelengths. Each assay was conducted in duplicate and mean values were utilized. Ki values were determined by curve-fitting with Graph-Pad Prism® software using a one-site fixed-slope competition binding model.

C57BL/6 male DIO mice = assay: Body weight and food intake in vivo study in diet induced obese mice; design: species or system mouse; details: for Body Weight Change (%) Mean / Food Intake - 24 Hours (g) Mean: 1 mg/kg subcutaneous twice daily
Procedure: Compound 7.1 was assessed in a body weight and food intake in vivo study in diet induced obese […] mice. C57BL/6 male DIO mice were utilized, that were 17 weeks of age on arrival. Animals were pre-conditioned on a high-fat diet for 11 weeks by Jackson Labs. […] Animals were single housed within a limited access rodent facility, and provided ad libitum with a commercial rodent diet and free access to drinking water. Animals were randomized into five groups, a vehicle group, three dose levels of compound 7.1 (3 mg/kg, 10 mg/kg and 30 mg/kg), and Peptide A, a positive control cyclic peptide of the formula Ac-Arg-cyclo(Orn-Asn-D-Phe-Arg-Trp-Glu)-NH2. Following three days of sham dosing, animals were dosed for three days, with vehicle or Compound 7.1 dosed orally once daily at within one hour of lights out in the AM, and Peptide A dosed by subcutaneous injection twice daily within one hour before lights out and six hours after lights out. Body weights were measured one hour prior to lights out, and feed weights were measured both one hour prior to lights out and six hours post lights out.
*p<0.05 vs. sham (vehicle control) using two-way ANOVA followed by Dunnett's post-test.
**p<0.01 vs sham (vehicle control) using two-way ANOVA followed by Dunnett's post-test.

T2 sequence (P32245 whole entry): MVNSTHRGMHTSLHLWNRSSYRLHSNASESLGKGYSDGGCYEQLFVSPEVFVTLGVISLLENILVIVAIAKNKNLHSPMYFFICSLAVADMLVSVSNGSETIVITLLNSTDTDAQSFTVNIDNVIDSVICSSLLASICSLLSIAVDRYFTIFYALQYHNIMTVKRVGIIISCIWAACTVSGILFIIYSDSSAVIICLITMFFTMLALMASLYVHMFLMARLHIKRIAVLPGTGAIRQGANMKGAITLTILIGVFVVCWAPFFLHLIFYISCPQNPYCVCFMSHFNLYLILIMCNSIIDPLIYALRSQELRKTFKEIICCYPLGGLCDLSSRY
T1 sequence (Q01726 whole entry): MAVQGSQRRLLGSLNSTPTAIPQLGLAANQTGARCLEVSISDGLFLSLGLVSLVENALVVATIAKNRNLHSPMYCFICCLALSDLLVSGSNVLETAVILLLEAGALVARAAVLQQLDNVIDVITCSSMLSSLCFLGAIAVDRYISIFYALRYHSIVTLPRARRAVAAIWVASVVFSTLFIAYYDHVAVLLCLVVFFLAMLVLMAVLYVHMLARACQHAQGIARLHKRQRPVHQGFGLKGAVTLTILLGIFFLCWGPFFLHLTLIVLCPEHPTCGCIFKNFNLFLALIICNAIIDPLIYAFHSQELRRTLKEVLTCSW

| Emax (MC4r [1]) [%] | Ki (MC4r [2]) [nM] | EC50 (MC4r [1]) [nM] | Compound | also measured |
| --- | --- | --- | --- | --- |
| 15 | 4 | 9 | CC(=O)N1CCC(N(CC(C)C)N2CCN(C(=O)[C@@H](Cc3ccc(Cl)cc3)NC(=O)C3(N)CCCCC3)CC2)CC1 [Compound 7.5, N-[(1R)-2-[4-[(1-acetyl-4-piperidyl)-isobutyl-amino]piperazin-1-yl]-1-[(4-chlorophenyl)methyl]-2-oxo-ethyl]-1-amino-cyclohexanecarboxamide] |  |
| 34 | 13 | 25 | CCC(N)(CC)C(=O)N[C@H](Cc1ccc(Cl)cc1)C(=O)N1CCN(N(CC(C)C)C2CCN(C(C)=O)CC2)CC1 [Compound 7.6, N-[(1R)-2-[4-[(1-acetyl-4-piperidyl)-isobutyl-amino]piperazin-1-yl]-1-[(4-chlorophenyl)methyl]-2-oxo-ethyl]-2-amino-2-ethyl-butanamide] |  |
| 8 | 3 |  | CC(=O)N1CCC(N(CC(C)C)N2CCN(C(=O)[C@@H](Cc3ccc(Cl)cc3)NC(=O)C3(N)CCCCCC3)CC2)CC1 [Compound 7.7, N-[(1R)-2-[4-[(1-acetyl-4-piperidyl)-isobutyl-amino]piperazin-1-yl]-1-[(4-chlorophenyl)methyl]-2-oxo-ethyl]-1-amino-cycloheptanecarboxamide] |  |
| 28 | 6 | 52 | CCNC(=O)N1CCC(N(CC(C)C)N2CCN(C(=O)[C@@H](Cc3ccc(Cl)cc3)NC(=O)C(C)(C)N)CC2)CC1 [Compound 7.8, 4-[[4-[(2R)-2-[(2-amino-2-methyl-propanoyl)amino]-3-(4-chlorophenyl)propanoyl]piperazin-1-yl]-isobutyl-amino]-N-ethyl-piperidine-1-carboxamide] | Ki (MC1r): 150 nM |
| 22 | 5 | 9 | CC(C)CN(C1CCN(C(=O)CO)CC1)N1CCN(C(=O)[C@@H](Cc2ccc(Cl)cc2)NC(=O)C(C)(C)N)CC1 [Compound 7.10, 2-amino-N-[(1R)-1-[(4-chlorophenyl)methyl]-2-[4-[[1-(2-hydroxyacetyl)-4-piperidyl]-isobutyl-amino]piperazin-1-yl]-2-oxo-ethyl]-2-methyl-propanamide] |  |
| 13 | 6 | 6 | CC(=O)N1CCC(N(CC(C)C)N2CCN(C(=O)[C@@H](Cc3ccc(Cl)cc3)NC(=O)C3(C)CCCN3)CC2)CC1 (stereo partly drawn) [Compound 7.11, N-[(1R)-2-[4-[(1-acetyl-4-piperidyl)-isobutyl-amino]piperazin-1-yl]-1-[(4-chlorophenyl)methyl]-2-oxo-ethyl]-2-methyl-pyrrolidine-2-carboxamide] |  |

The next lines start with the compound.

| Compound | Emax (MC4r [1]) [%] | Ki (MC4r [2]) [nM] | EC50 (MC4r [1]) [nM] | also measured |
| --- | --- | --- | --- | --- |
| CC(=O)N1CCC(N(CC(C)C)N2CCN(C(=O)[C@@H](Cc3ccc(Cl)cc3)NC(=O)C3(N)CC3)CC2)CC1 [Compound 7.2, N-[(1R)-2-[4-[(1-acetyl-4-piperidyl)-isobutyl-amino]piperazin-1-yl]-1-[(4-chlorophenyl)methyl]-2-oxo-ethyl]-1-amino-cyclopropanecarboxamide] | 3 | 5 |  | Ki (MC1r): 40 nM |
| CC(=O)N1CCC(N(CC(C)C)N2CCN(C(=O)[C@@H](Cc3ccc(Cl)cc3)NC(=O)C3(N)CCC3)CC2)CC1 [Compound 7.3, N-[(1R)-2-[4-[(1-acetyl-4-piperidyl)-isobutyl-amino]piperazin-1-yl]-1-[(4-chlorophenyl)methyl]-2-oxo-ethyl]-1-amino-cyclobutanecarboxamide] | 10 | 3 |  |  |
| CC(=O)N1CCC(N(CC(C)C)N2CCN(C(=O)[C@@H](Cc3ccc(Cl)cc3)NC(=O)C3(N)CCCC3)CC2)CC1 [Compound 7.4, N-[(1R)-2-[4-[(1-acetyl-4-piperidyl)-isobutyl-amino]piperazin-1-yl]-1-[(4-chlorophenyl)methyl]-2-oxo-ethyl]-1-amino-cyclopentanecarboxamide] | 10 | 4 |  |  |
| CNC(C)(C)C(=O)N[C@H](Cc1ccc(Cl)cc1)C(=O)N1CCN(N(CC(C)C)C2CCN(C(C)=O)CC2)CC1 [Compound 7.9, N-[(1R)-2-[4-[(1-acetyl-4-piperidyl)-isobutyl-amino]piperazin-1-yl]-1-[(4-chlorophenyl)methyl]-2-oxo-ethyl]-2-methyl-2-(methylamino)propanamide] |  |  |  | relative efficacy, compared to NDP-α-MSH (MC4r [1]): 19% |
| Ac-Arg-cyclo(Orn-Asn-D-Phe-Arg-Trp-Glu)-NH2 [Peptide A] |  |  |  | Body Weight Change (%) Mean (C57BL/6 male DIO mice; Day 0): 0%; Food Intake - 24 Hours (g) Mean (C57BL/6 male DIO mice; Day 0, 24 hours post lights out): 0.99** g; Body Weight Change (%) Mean (C57BL/6 male DIO mice; Day 1): −5.69** %; Food Intake - 24 Hours (g) Mean (C57BL/6 male DIO mice; Day 1, 24 hours post lights out): 1.10** g; Body Weight Change (%) Mean (C57BL/6 male DIO mice; Day 2): −8.37** %; Food Intake - 24 Hours (g) Mean (C57BL/6 male DIO mice; Day 2, 24 hours post lights out): 1.67** g; Body Weight Change (%) Mean (C57BL/6 male DIO mice; Day 3): −8.78** %; effect on feed intake at 24 hours post lights out (in words) (C57BL/6 male DIO mice; 1 mg/kg, entirety of the study, compared with sham animals): significantly inhibited feed intake; effect on body weight (in words) (C57BL/6 male DIO mice; two times daily 1 mg/kg, throughout the study): decreased animal body weights |
